Assay results from patent US20170182104A1, “COMPOSITION CONTAINING MASTERWORT EXTRACT” (AMOREPACIFIC CORPORATION, priority 2014, published 2017).

Tests used:
Format in all cases: cell-based, human
endothelin 1 (EDN1) = experiment: Endothelin 1 ELISA assay of culture medium of melanocytes; conditions: melanocytes (KaMC) medium, 2 nM substance P; absorbance/total protein, control group = 100%
Protocol: When the density of the melanocytes on the 6-well plate reached about 80% (˜80% confluence), they were incubated for a total of 5 days with 2 nM of stress-inducing substance P (Bachem Fechemikalien, Bubendorf, Switzerland) or the masterwort (Peucedanum ostruthium) extract of Example 1 of different concentrations (0, 0.1, 1, 2 and 5 ppm). The cells not treated with substance P or the masterwort (Peucedanum ostruthium) extract of Example 1 were used as a control group.
The culture medium of the cells treated with the extract in (2) of Test Example 1 were recovered and the amount of endothelin 1 (EDN1) comprised in the medium was measured at 450 nm using the human total endothelin ELISA kit (MyBioSource, USA).
Endothelin content (%)=(Absorbance/Total protein)×100 Equation 1

EDN1 (endothelin 1) gene = experiment: Gene expression assay by real-time PCR: EDN1 gene in melanocytes; conditions: melanocytes (KaMC), 2 nM substance P, 5 days; relative to GAPDH, control group = 1
Protocol: (§1) Melanocytes (KaMC; KCTC 12015BP) deposited in the Korean Collection for Type Culture (KCTC) were cultured in M-254 medium (Gibco BRL, N.Y., USA) supplemented with Human Melanocyte Growth Supplement (HMGS; Gibco BRL, N.Y., USA) on a 6-well plate, while changing the medium every other day, in a 5% CO2 incubator at 37° C. until the cells occupied 95% of the plate area (95% confluence). […] The cells not treated with substance P or the masterwort (Peucedanum ostruthium) extract of Example 1 were used as a control group. After removing the medium form the melanocytes cultured on the 6-well plate, the cells were washed 2 times with cold phosphate-buffered saline (PBS) and the remaining water was completely removed. […] 1 μL of the RNA was quantified using Synergy II (Biotek, USA). […] After adding 10 μL of Taqman Gene Expression Master Mix (Life Technologies, USA) and 1 μL of Assays-on-DemandTM (Life Technologies, USA) of NK1 R (ACCESSION: NM_001058) and EDN1 (ACCESSION: NM_001168319) genes to 9 μL of the diluted cDNA, the expression of the genes was analyzed by relative quantification using 7500 Fast Real-Time PCR (Life Technologies, USA) with glyceraldehyde 3-phosphate dehydrogenase (GAPDH, ACCESSION: NM001256799) as a control gene. […]

[1] = tested on: NK1R (neurokinin 1 receptor) gene; experiment: Gene expression assay by real-time PCR: NK1R gene in melanocytes; conditions: melanocytes (KaMC), 2 nM substance P, 5 days; relative to GAPDH, control group = 1
Protocol: as §1

With `CSCC[C@H](NC(=O)[C@H](CC(C)C)NC(=O)CNC(=O)[C@H](Cc1ccccc1)NC(=O)[C@H](Cc1ccccc1)NC(=O)[C@H](CCC(N)=O)NC(=O)[C@H](CCC(N)=O)NC(=O)[C@@H]1CCCN1C(=O)[C@H](CCCCN)NC(=O)[C@@H]1CCCN1C(=O)[C@@H](N)CCCN=C(N)N)C(N)=O` [substance P] the “content of endothelin 1” value (endothelin 1 (EDN1)) was 124%, the “expression of the EDN1 gene” value (EDN1 (endothelin 1) gene) was 3.6 and the “expression of the NK1R gene” value [1] was 4.2.
